The text below walks through data of US20250122225A1, “MASP-2 INHIBITORS AND METHODS OF USE” (Omeros Corporation, priority 2023, published 2025).

One test concerns the target T1, human α-thrombin (Homo sapiens, UniProt P00734).
T1 construct: enzyme (human α-thrombin (BioPharm® Lab.)) in assay buffer; purchased BioPharm® Lab
The test can be described thus: Enzymatic assay for thrombin (fluorogenic peptide substrate Boc-VPR-AMC). Format: biochemical. Put shortly: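 Assay conditions kept the reaction linear in time, enzyme and substrate, so IC50 approximated Ki apart from tight- or slow-binding cases. Boc-VPR-AMC cleavage by human α-thrombin proceeded 20 min at room temperature in Hepes pH 7.4/NaCl/Tween 20 buffer, then was acid-quenched and read by fluorescence.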

The target of the next test is T2, MASP-2 (CCP1-CCP2-SP) (Homo sapiens, UniProt O00187).
T2 construct: 15 μL of Enzyme MASP-2 (CCP1-CCP2-SP) in Assay Buffer
T2 sequence (O00187 445-686 limits assumed): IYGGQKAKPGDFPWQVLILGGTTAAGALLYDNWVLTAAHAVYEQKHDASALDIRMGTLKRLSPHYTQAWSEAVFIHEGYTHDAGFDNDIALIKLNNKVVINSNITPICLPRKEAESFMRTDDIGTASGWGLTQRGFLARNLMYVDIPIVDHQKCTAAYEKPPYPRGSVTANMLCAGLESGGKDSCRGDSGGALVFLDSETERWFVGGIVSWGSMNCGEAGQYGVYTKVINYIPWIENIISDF
T2 sequence (O00187 287-444 partner limits assumed): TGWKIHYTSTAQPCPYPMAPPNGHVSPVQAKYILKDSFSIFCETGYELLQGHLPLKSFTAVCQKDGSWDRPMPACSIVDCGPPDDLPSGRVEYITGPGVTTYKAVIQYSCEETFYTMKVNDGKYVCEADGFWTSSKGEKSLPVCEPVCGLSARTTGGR
Nature of the test: Enzymatic assay for MASP-2 inhibitory activity (fluorogenic substrate). The format is biochemical. Put shortly: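 Fluorescence was normalized between no-enzyme and DMSO-only controls to derive % activity, with IC50 taken as equivalent to Ki except for tight-binding inhibitors. Reactions ran 20 min at room temperature in HEPES pH 7.4/NaCl/Tween 20 buffer, using the C2-derived fluorogenic substrate, before acetic acid stop.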

Where a name gives a salt, the structure may show the parent alone.

Broadly, the Ki is a dissociation constant, usually derived from enzyme kinetics or from competition with a known ligand. A low value points to higher affinity.

`CC[C@H]1C[C@@H](C(=O)NCc2cc3c(s2)CNC3)n2c1c(Cl)nc(NCc1ccccc1)c2=O` [Compound 158, (6S,8S)-3-(benzylamino)-1-chloro-N-((5,6-dihydro-4H-thieno[2,3-c]pyrrol-2-yl)methyl)-8-ethyl-4-oxo-4,6,7,8-tetrahydropyrrolo[1,2-a]pyrazine-6-carboxamide hydrochloride]: the Ki on human α-thrombin is 2500 to 10000 nM; at MASP-2 (CCP1-CCP2-SP), < 500 nM.

As to `CC[C@H]1C[C@@H](C(=O)NCc2cc3cnccc3[nH]2)n2c1c(Cl)nc(NCc1ccccc1)c2=O` [Compound 159, (6S,8S)—N-((1H-pyrrolo[3,2-c]pyridin-2-yl)methyl)-3-(benzylamino)-1-chloro-8-ethyl-4-oxo-4,6,7,8-tetrahydropyrrolo[1,2-a]pyrazine-6-carboxamide], the figures for the Ki at human α-thrombin and at MASP-2 (CCP1-CCP2-SP) were 10000 to 25000 nM and < 500 nM, respectively.

As to `CC[C@H]1C[C@@H](C(=O)NCc2cc3cnccc3[nH]2)n2c1c(Cl)nc(NCc1cc(C)cc(C)c1)c2=O` [Compound 160, (6S,8S)-N-((1H-pyrrolo[3,2-c]pyridin-2-yl)methyl)-1-chloro-3-((3,5-dimethylbenzyl)amino)-8-ethyl-4-oxo-4,6,7,8-tetrahydropyrrolo[1,2-a]pyrazine-6-carboxamide], the results for the Ki on human α-thrombin and at MASP-2 (CCP1-CCP2-SP) were > 25000 nM and < 500 nM, respectively.

`CC[C@H]1C[C@@H](C(=O)NCc2cc3c(s2)CNC3)n2c1cnc(NCc1ccccc1)c2=O` [Compound 161, (6S,8S)-3-(benzylamino)-N-((5,6-dihydro-4H-thieno[2,3-c]pyrrol-2-yl)methyl)-8-ethyl-4-oxo-4,6,7,8-tetrahydropyrrolo[1,2-a]pyrazine-6-carboxamide hydrochloride]: the Ki at human α-thrombin was 500 to 2500 nM; at MASP-2 (CCP1-CCP2-SP) it was < 500 nM.

For the molecule `O=C(NCc1cc2cnccc2[nH]1)[C@@H]1CCc2c(Cl)nc(NCc3ccc4c(c3)CCCC4)c(=O)n21` [Compound 162, (S)—N-((1H-pyrrolo[3,2-c]pyridin-2-yl)methyl)-1-chloro-4-oxo-3-(((5,6,7,8-tetrahydronaphthalen-2-yl)methyl)amino)-4,6,7,8-tetrahydropyrrolo[1,2-a]pyrazine-6-carboxamide], the results for the Ki at human α-thrombin and at MASP-2 (CCP1-CCP2-SP) were > 25000 nM and < 500 nM, respectively.

As for `Cc1cc(F)cc(CNc2ncc3n(c2=O)[C@@H](C(=O)NCc2ccc(N)nc2C)CC3)c1` [Compound 163, (R)—N-((6-amino-2-methylpyridin-3-yl)methyl)-3-((3-fluoro-5-methylbenzyl)amino)-4-oxo-4,6,7,8-tetrahydropyrrolo[1,2-a]pyrazine-6-carboxamide], the inhibitory constant (Ki) on human α-thrombin and at MASP-2 (CCP1-CCP2-SP) was < 500 nM in each case.

As for `COc1cc(C)cc(CNc2ncc3n(c2=O)[C@@H](C(=O)NCc2cc4cnccc4[nH]2)CC3)c1` [Compound 164], the Ki was 2500 to 10000 nM at human α-thrombin and < 500 nM on MASP-2 (CCP1-CCP2-SP).

Regarding `Cc1cc(F)cc(CNc2nc(Cl)c3n(c2=O)[C@H](C(=O)NCc2cnc4ccccn24)CC3)c1` [Compound 165, (S)-1-chloro-3-((3-fluoro-5-methylbenzyl)amino)-N-(imidazo[1,2-a]pyridin-3-ylmethyl)-4-oxo-4,6,7,8-tetrahydropyrrolo[1,2-a]pyrazine-6-carboxamide trifluoroacetate], the values for the Ki at human α-thrombin and on MASP-2 (CCP1-CCP2-SP) were > 25000 nM and 10000 to 25000 nM, respectively.

As to `Cc1nc(N)ccc1CNC(=O)[C@@H]1CCc2cnc(NCc3cnn(-c4ccccc4)c3)c(=O)n21` [Compound 166, (S)—N-((6-amino-2-methylpyridin-3-yl)methyl)-4-oxo-3-(((1-phenyl-1h-pyrazol-4-yl)methyl)amino)-4,6,7,8-tetrahydropyrrolo[1,2-a]pyrazine-6-carboxamide trifluoroacetate], the Ki was 500 to 2500 nM at human α-thrombin and < 500 nM at MASP-2 (CCP1-CCP2-SP).

With `Cc1nc(N)ccc1CNC(=O)[C@@H]1CCc2cnc(NCc3cnn(C)c3)c(=O)n21` [Compound 167, (S)-N-((6-amino-2-methylpyridin-3-yl)methyl)-3-(((1-methyl-1H-pyrazol-4-yl)methyl)amino)-4-oxo-4,6,7,8-tetrahydropyrrolo[1,2-a]pyrazine-6-carboxamide trifluoroacetate], the inhibition constant Ki on human α-thrombin is 500 to 2500 nM; on MASP-2 (CCP1-CCP2-SP), < 500 nM.

`Cc1nc(N)ccc1CNC(=O)[C@@H]1CCc2cnc(NCc3cn4c(n3)CCCC4)c(=O)n21` [Compound 168, (S)-N-((6-amino-2-methylpyridin-3-yl)methyl)-4-oxo-3-(((5,6,7,8-tetrahydroimidazo[1,2-a]pyridin-2-yl)methyl)amino)-4,6,7,8-tetrahydropyrrolo[1,2-a]pyrazine-6-carboxamide trifluoroacetate]: the figures for the Ki on human α-thrombin and at MASP-2 (CCP1-CCP2-SP) were 2500 to 10000 nM and 500 to 2500 nM, respectively.

On to `Cc1nc(N)ccc1CNC(=O)[C@@H]1CCc2cnc(NCc3cccc(-n4cccn4)c3)c(=O)n21` [Compound 169, (S)-3-((3-(1H-pyrazol-1-yl)benzyl)amino)-N-((6-amino-2-methylpyridin-3-yl)methyl)-4-oxo-4,6,7,8-tetrahydropyrrolo[1,2-a]pyrazine-6-carboxamide trifluoroacetate], for which the Ki on human α-thrombin and on MASP-2 (CCP1-CCP2-SP) was < 500 nM each time.

With `Cc1nc(N)ccc1CNC(=O)[C@@H]1CCc2cnc(NCc3nn(C)c4ccccc34)c(=O)n21` [Compound 170, (S)-N-((6-amino-2-methylpyridin-3-yl)methyl)-3-(((1-methyl-1H-indazol-3-yl)methyl)amino)-4-oxo-4,6,7,8-tetrahydropyrrolo[1,2-a]pyrazine-6-carboxamide trifluoroacetate], the Ki on human α-thrombin and on MASP-2 (CCP1-CCP2-SP) was < 500 nM throughout.

Consider `COc1cc(F)cc(CNc2ncc3n(c2=O)[C@H](C(=O)NCc2ccc(N)nc2C)CC3)c1` [Compound 171, (S)-N-((6-amino-2-methylpyridin-3-yl)methyl)-3-((3-fluoro-5-methoxybenzyl)amino)-4-oxo-4,6,7,8-tetrahydropyrrolo[1,2-a]pyrazine-6-carboxamide trifluoroacetate], for which the Ki on human α-thrombin and on MASP-2 (CCP1-CCP2-SP) was < 500 nM throughout.

As to `Cc1nc(N)ccc1CNC(=O)[C@@H]1CCc2cnc(NCc3ccc4c(cnn4C)c3)c(=O)n21` [Compound 172], the Ki on human α-thrombin and on MASP-2 (CCP1-CCP2-SP) was < 500 nM throughout.

For `Cc1cc(F)cc(CNc2ncc3n(c2=O)[C@H](C(=O)NCc2ccc([C@@H](C)N)cc2)CC3)c1` [Compound 173, (S)—N-(4-((R)-1-aminoethyl)benzyl)-3-((3-fluoro-5-methylbenzyl)amino)-4-oxo-4,6,7,8-tetrahydropyrrolo[1,2-a]pyrazine-6-carboxamide trifluoroacetate], the Ki at human α-thrombin was > 25000 nM; at MASP-2 (CCP1-CCP2-SP), 2500 to 10000 nM.

With `Cc1cc(F)cc(CNc2nc(-c3cnn(C)c3)c3n(c2=O)[C@H](C(=O)NCc2ccc(N)nc2C)CC3)c1` [Compound 174, (S)—N-((6-amino-2-methylpyridin-3-yl)methyl)-3-((3-fluoro-5-methylbenzyl)amino)-1-(1-methyl-1H-pyrazol-4-yl)-4-oxo-4,6,7,8-tetrahydropyrrolo[1,2-a]pyrazine-6-carboxamide trifluoroacetate], the Ki on human α-thrombin was > 25000 nM; on MASP-2 (CCP1-CCP2-SP), < 500 nM.

Regarding `Cc1cc(F)cc(CNc2nc(-c3ccnn3C)c3n(c2=O)[C@H](C(=O)NCc2ccc(N)nc2C)CC3)c1` [Compound 175, (S)-N-((6-amino-2-methylpyridin-3-yl)methyl)-3-((3-fluoro-5-methylbenzyl)amino)-1-(1-methyl-1H-pyrazol-5-yl)-4-oxo-4,6,7,8-tetrahydropyrrolo[1,2-a]pyrazine-6-carboxamide trifluoroacetate], the Ki at human α-thrombin was 500 to 2500 nM; at MASP-2 (CCP1-CCP2-SP) it was < 500 nM.

For the molecule `Cc1cc(F)cc(CNc2nc(C3CCCCC3)c3n(c2=O)[C@H](C(=O)NCc2ccc(N)nc2C)CC3)c1` [Compound 176, (S)—N-((6-amino-2-methylpyridin-3-yl)methyl)-1-cyclohexyl-3-((3-fluoro-5-methylbenzyl)amino)-4-oxo-4,6,7,8-tetrahydropyrrolo[1,2-a]pyrazine-6-carboxamide DI-trifluoroacetate], the Ki is 10000 to 25000 nM at human α-thrombin and < 500 nM on MASP-2 (CCP1-CCP2-SP).

Take `Cc1cc(F)cc(CNc2nc(C3CCCCC3)c3n(c2=O)[C@H](C(=O)NCc2cc4cnccc4[nH]2)CC3)c1` [Compound 177, trifluoroacetate]: the values for the inhibitory constant (Ki) on human α-thrombin and on MASP-2 (CCP1-CCP2-SP) were > 25000 nM and < 500 nM, respectively.

With `Cc1cc(F)cc(CNc2ncc3n(c2=O)[C@H](C(=O)NCc2cc(Cl)ccc2-n2cnnn2)CC3)c1` [Compound 179, (S)—N-(5-chloro-2-(1H-tetrazol-1-yl)benzyl)-3-((3-fluoro-5-methylbenzyl)amino)-4-oxo-4,6,7,8-tetrahydropyrrolo[1,2-a]pyrazine-6-carboxamide], the Ki on human α-thrombin and on MASP-2 (CCP1-CCP2-SP) was < 500 nM in each case.

Take `Cc1cc(F)cc(CNc2ncc3n(c2=O)[C@H](C(=O)NCc2cccc(Cl)c2)CC3)c1` [Compound 180]: the Ki on human α-thrombin was 2500 to 10000 nM; on MASP-2 (CCP1-CCP2-SP) it was 500 to 2500 nM.

In the case of `Cc1cc(F)cc(CNc2ncc3n(c2=O)[C@H](C(=O)NCc2cnc4[nH]cc(Cl)c4c2)CC3)c1` [Compound 182, (S)—N-((3-chloro-1H-pyrrolo[2,3-b]pyridin-5-yl)methyl)-3-((3-fluoro-5-methylbenzyl)amino)-4-oxo-4,6,7,8-tetrahydropyrrolo[1,2-a]pyrazine-6-carboxamide], the Ki on human α-thrombin and on MASP-2 (CCP1-CCP2-SP) was < 500 nM in each case.

Regarding `Cc1cc(F)cc(CNc2ncc3n(c2=O)[C@H](C(=O)NCc2cnc4[nH]ccc4c2)CC3)c1` [Compound 183, (S)-N-((1H-pyrrolo[2,3-b]pyridin-5-yl)methyl)-3-((3-fluoro-5-methylbenzyl)amino)-4-oxo-4,6,7,8-tetrahydropyrrolo[1,2-a]pyrazine-6-carboxamide], the Ki is 2500 to 10000 nM at human α-thrombin and 500 to 2500 nM at MASP-2 (CCP1-CCP2-SP).
